Measurements as given in patent US10689377B2 (Mirati Therapeutics, Inc., priority 2017, dated 2020).
Where two headings read alike, the source gives them in different places.

Legend:
KRas G12C [1] = target: KRas G12C (Homo sapiens, UniProt P01116, C118S/C51S/C80L/G12C); assay: KRas G12C Modification Assay (LCMS detection of covalent adduct); assay type: binding
Description: A 10 μL aliquot of each protein solution was then transferred to a 384 well microtiter plate. Initial compound stocks were generated at fifty times their desired final assay concentration in DMSO.
Exemplary compounds of Formula (I) were diluted 25-fold into K-Ras Assay Buffer to a final of two times their final concentration. A 10 μL aliquot of each diluted compound solution was then added to each of the protein solutions in the microtiter plate to initiate reaction. […] At each time point, the reactions were quenched with 20 μL of a 25 mM acetic acid solution. […] Once all reactions were quenched, the plates were heat sealed and the samples were injected into a LC/MS system for data acquisition.
Samples were injected in their liquid phase onto a C-3 reverse phase column to remove assay buffer and prepare the samples for mass spectrometer. The proteins were eluted from the column using an acetonitrile gradient and fed directly into the mass analyzer. Initial raw data analysis took place in Agilent MassHunter software immediately post data acquisition.
Raw data analysis of the intact protein was exclusively a deconvolution of the multiple charge states of each protein in solution using a maximum entropy deconvolution provided in Mass Hunter. To minimize complexity, only the data over limited mass ranges were considered for analysis, with a minimum of one Dalton mass step intervals. The heights of all masses identified during raw data analysis were exported to be further analyzed in Spotfire® data analysis software.
Final data analysis was a multistep process in the Spotfire® data analysis software package. Briefly, each protein mass was calculated as a percent of the total signal of that sample, that percentage was then normalized to the percentage of signal of the protein in the absence of reactive compounds. Those normalized signals were reported as normalized percent of control (POC). […] Key: “A”≤25% POC; “B”>25% POC-≤50% POC; “C”>50% POC and ND=not determined.

KRas G12C [2] = target: KRas G12C (Homo sapiens, UniProt P01116, G12C); assay: Cellular inhibition of KRas G12C measured by Phospho-ERK in NCI-H358 cells; assay type: cell-based; details: pERK(Thr202/Tyr204) normalized with GAPDH, NCI-H358 cells, 3 hours
Method in brief: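 Ratio of phospho-ERK(Thr202/Tyr204) to GAPDH, read by near-infrared secondary antibodies on fixed, permeabilised NCI-H358 cells, expressed relative to DMSO control. Compound exposure was 3 h at 0.5% DMSO. IC50 values come from 4-parameter curve fits.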

[3] = normalized percent of control, 5 μM concentration for 3 hours

Question: For `C=CC(=O)N1CCN(c2nc(OCCCN3CCOCC3)nc3c2CCN(c2c(C(F)(F)F)ccc4[nH]ncc24)C3)CC1` [Example 180, 1-[4-[2-(3-morpholinopropoxy)-7-[5-(trifluoromethyl)-1H-indazol-4-yl]-6,8-dihydro-5H-pyrido[3,4-d]pyrimidin-4-yl]piperazin-1-yl]prop-2-en-1-one], which POC (KRas G12C [1]; [3]) is on record?
Answer: Its POC is “C (“C”>50% POC)”.

Question: And the IC50 (KRas G12C [2]; read-out: IC50)?
Answer: The IC50 was 0.1 to 1000 nM.

Question: Which POC (KRas G12C [1]; [3]) does the source give for `C=CC(=O)N1CCN(c2nc(OC[C@@H]3CCCN3C)nc3c2CCN(c2cc(O)cc4ccccc24)C3)CC1CC#N` (stereo partly drawn) [Example 182, 2-[4-[7-(3-hydroxy-1-naphthyl)-2-[[(2S)-1-methylpyrrolidin-2-yl]methoxy]-6,8-dihydro-5H-pyrido[3,4-d]pyrimidin-4-yl]-1-prop-2-enoyl-piperazin-2-yl]acetonitrile] here?
Answer: The POC was “C (“C”>50% POC)”.

Question: What about the IC50 (KRas G12C [2]; read-out: IC50) of the same molecule?
Answer: Its IC50 is 0.1 to 1000 nM.

Question: What does the source list for `C=CC(=O)N1CCN(c2nc(OC[C@H]3CCCN3C)nc3c2CCN(c2cccc4ccccc24)C3)CC1CC#N` (stereo partly drawn) [Example 183, 2-[4-[2-[[(2R)-1-methylpyrrolidin-2-yl]methoxy]-7-(1-naphthyl)-6,8-dihydro-5H-pyrido[3,4-d]pyrimidin-4-yl]-1-prop-2-enoyl-piperazin-2-yl]acetonitrile]?
Answer: POC (KRas G12C [1]; [3]): C (“C”>50% POC); IC50 (KRas G12C [2]; read-out: IC50): 0.1 to 1000 nM

Question: Which results are given for `C=CC(=O)N1CCN(c2nc(OCCCN3CCOCC3)nc3c2CCN(c2cc(O)cc4cccnc24)C3)CC1` [Example 205, 1-(4-(7-(6-hydroxyquinolin-8-yl)-2-(3-morpholinopropoxy)-5,6,7,8-tetrahydropyrido[3,4-d]pyrimidin-4-yl)piperazin-1-yl)prop-2-en-1-one]?
Answer: POC (KRas G12C [1]; [3]): C (“C”>50% POC); IC50 (KRas G12C [2]; read-out: IC50): > 1000 nM

Question: Which POC (KRas G12C [1]; [3]) does the source give for `C=CC(=O)N1CCN(c2nc(OCCCN3CC4CC4C3)nc3c2CCN(c2cc(O)cc4ccccc24)C3)CC1` (stereo not shown) [Example 206, 1-(4-(2-(3-(3-azabicyclo[3.1.0]hexan-3-yl)propoxy)-7-(3-hydroxynaphthalen-1-yl)-5,6,7,8-tetrahydropyrido[3,4-d]pyrimidin-4-yl)piperazin-1-yl)prop-2-en-1-one] here?
Answer: The POC was “C (“C”>50% POC)”.

Question: And the IC50 (KRas G12C [2]; read-out: IC50)?
Answer: Its IC50 is 0.1 to 1000 nM.

Question: `C=CC(=O)N1CCN(c2nc(OCCN3CCC[C@@H](F)C3)nc3c2CCN(c2cc(O)cc4ccccc24)C3)CC1` [Example 207, (R)-1-(4-(2-(2-(3-fluoropiperidin-1-yl)ethoxy)-7-(3-hydroxynaphthalen-1-yl)-5,6,7,8-tetrahydropyrido[3,4-d]pyrimidin-4-yl)piperazin-1-yl)prop-2-en-1-one] was tested. Which POC (KRas G12C [1]; [3]) did it give?
Answer: The POC was “C (“C”>50% POC)”.

Question: What about the IC50 (KRas G12C [2]; read-out: IC50) of the same molecule?
Answer: The IC50 was greater than 1000 nM.

Question: `C=CC(=O)N1CCN(c2nc(OCCCN3C[C@@H](F)[C@@H](F)C3)nc3c2CCN(c2cc(O)cc4ccccc24)C3)CC1` [Example 208, 1-(4-(2-(3-((3R,4S)-3,4-difluoropyrrolidin-1-yl)propoxy)-7-(3-hydroxynaphthalen-1-yl)-5,6,7,8-tetrahydropyrido[3,4-d]pyrimidin-4-yl)piperazin-1-yl)prop-2-en-1-one] was tested. Which POC (KRas G12C [1]; [3]) did it give?
Answer: The POC was “C (“C”>50% POC)”.

Question: What about the IC50 (KRas G12C [2]; read-out: IC50) of the same molecule?
Answer: Its IC50 is greater than 1000 nM.

Question: What does the source list for `C=CC(=O)N1CCN(c2nc(OC[C@@H]3CCCN3C)nc3c2CCN(c2ccccc2C(F)(F)F)C3)CC1CC#N` (stereo partly drawn) [Example 210, 2-(1-acryloyl-4-(2-(((S)-1-methylpyrrolidin-2-yl)methoxy)-7-(2-(trifluoromethyl)phenyl)-5,6,7,8-tetrahydropyrido[3,4-d]pyrimidin-4-yl)piperazin-2-yl)acetonitrile]?
Answer: POC (KRas G12C [1]; [3]): C (“C”>50% POC); IC50 (KRas G12C [2]; read-out: IC50): 0.1 to 1000 nM

Question: `C=CC(=O)N1CCN(c2nc(OC[C@@H]3C[C@@H](F)CN3C)nc3c2CCN(c2cccc4ccccc24)C3)CC1CC#N` (stereo partly drawn) [Example 220, 2-(1-acryloyl-4-(2-(((2S,4R)-4-fluoro-1-methylpyrrolidin-2-yl)methoxy)-7-(naphthalen-1-yl)-5,6,7,8-tetrahydropyrido[3,4-d]pyrimidin-4-yl)piperazin-2-yl)acetonitrile] was tested. Which POC (KRas G12C [1]; [3]) did it give?
Answer: The POC was “C (“C”>50% POC)”.

Question: What about the IC50 (KRas G12C [2]; read-out: IC50) of the same molecule?
Answer: Its IC50 is 0.1 to 1000 nM.

Question: How did the POC (KRas G12C [1]; [3]) turn out when `C=CC(=O)N1CCN(c2nc(OCCCO)nc3c2CCN(c2cccc4ccccc24)C3)CC1CC#N` (stereo not shown) [Example 231, 2-(1-acryloyl-4-(2-(3-hydroxypropoxy)-7-(naphthalen-1-yl)-5,6,7,8-tetrahydropyrido[3,4-d]pyrimidin-4-yl)piperazin-2-yl)acetonitrile] was run?
Answer: Its POC is “C (“C”>50% POC)”.

Question: What about the IC50 (KRas G12C [2]; read-out: IC50) of the same molecule?
Answer: Its IC50 is 0.1 to 1000 nM.

Question: How did the POC (KRas G12C [1]; [3]) turn out when `C=CC(=O)N1CCN(c2nc(OC[C@@H]3CCCN3C)nc3c2CCN(c2cccc4ccccc24)C3)C[C@@H]1CC#N` [Example 234, 2-((S)-1-acryloyl-4-(2-(((S)-1-methylpyrrolidin-2-yl)methoxy)-7-(naphthalen-1-yl)-5,6,7,8-tetrahydropyrido[3,4-d]pyrimidin-4-yl)piperazin-2-yl)acetonitrile] was run?
Answer: The POC was “C (“C”>50% POC)”.

Question: What about the IC50 (KRas G12C [2]; read-out: IC50) of the same molecule?
Answer: The IC50 was 0.1 to 1000 nM.

Question: `CC#CC(=O)N1CCN(c2nc(OC[C@@H]3CCCN3C)nc3c2CCN(c2cccc4ccccc24)C3)CC1CC#N` (stereo partly drawn) [Example 242, 2-(1-(but-2-ynoyl)-4-(2-(((S)-1-methylpyrrolidin-2-yl)methoxy)-7-(naphthalen-1-yl)-5,6,7,8-tetrahydropyrido[3,4-d]pyrimidin-4-yl)piperazin-2-yl)acetonitrile] was tested. Which POC (KRas G12C [1]; [3]) did it give?
Answer: The POC was “C (“C”>50% POC)”.

Question: What about the IC50 (KRas G12C [2]; read-out: IC50) of the same molecule?
Answer: Its IC50 is 0.1 to 1000 nM.

Question: What does the source list for `C=CC(=O)N1CCN(c2nc(OC[C@@H]3CCCN3C)nc3c2CCN(c2cccc4ccc(C)cc24)C3)CC1CC#N` (stereo partly drawn) [Example 245, 2-[4-[7-(7-methyl-1-naphthyl)-2-[[(2S)-1-methylpyrrolidin-2-yl]methoxy]-6,8-dihydro-5H-pyrido[3,4-d]pyrimidin-4-yl]-1-prop-2-enoyl-piperazin-2-yl]acetonitrile]?
Answer: POC (KRas G12C [1]; [3]): C (“C”>50% POC); IC50 (KRas G12C [2]; read-out: IC50): 0.1 to 1000 nM

Question: What does the source list for `C=CC(=O)N1CCN(c2nc(OC[C@@H]3CCCN3C)nc3c2CCN(c2c(C(C)C)ccc4[nH]ncc24)C3)CC1` [Example 248, (S)-1-(4-(7-(5-isopropyl-1H-indazol-4-yl)-2-((1-methylpyrrolidin-2-yl)methoxy)-5,6,7,8-tetrahydropyrido[3,4-d]pyrimidin-4-yl)piperazin-1-yl)prop-2-en-1-one]?
Answer: POC (KRas G12C [1]; 5 µM): C (key: “A”≤25% POC; “B”>25% POC-≤50% POC; “C”>50% POC); IC50 (KRas G12C [2]; read-out: IC50): > 1000 nM

Question: How did the POC (KRas G12C [1]; [3]) turn out when `C=CC(=O)N1CCN(c2nc(OC[C@@H]3CCCN3C)nc3c2CCN(c2c(F)c(O)cc4ccccc24)C3)CC1` [Example 249, 1-[4-[7-(2-fluoro-3-hydroxy-1-naphthyl)-2-[[(2S)-1-methylpyrrolidin-2-yl]methoxy]-6,8-dihydro-5H-pyrido[3,4-d]pyrimidin-4-yl]piperazin-1-yl]prop-2-en-1-one] was run?
Answer: The POC was “C (“C”>50% POC)”.

Question: What about the IC50 (KRas G12C [2]; read-out: IC50) of the same molecule?
Answer: Its IC50 is 0.1 to 1000 nM.

Question: Which POC (KRas G12C [1]; [3]) does the source give for `C=CC(=O)N1CCN(c2nc(OC[C@]3(C)CCCN3C)nc3c2CCN(c2cccc4ccccc24)C3)CC1CC#N` (stereo partly drawn) [Example 251, 2-(1-acryloyl-4-(2-(((S)-1,2-dimethylpyrrolidin-2-yl)methoxy)-7-(naphthalen-1-yl)-5,6,7,8-tetrahydropyrido[3,4-d]pyrimidin-4-yl)piperazin-2-yl)acetonitrile] here?
Answer: The POC was “C (“C”>50% POC)”.

Question: What about the IC50 (KRas G12C [2]) of the same molecule?
Answer: Its IC50 is 0.1 to 1000 nM.

Question: Which POC (KRas G12C [1]; [3]) does the source give for `C=CC(=O)N1CCN(c2nc(OC[C@@H]3CCCN3C(C)C)nc3c2CCN(c2cccc4ccccc24)C3)CC1CC#N` (stereo partly drawn) [Example 252, 2-[4-[2-[[(2S)-1-isopropylpyrrolidin-2-yl]methoxy]-7-(1-naphthyl)-6,8-dihydro-5H-pyrido[3,4-d]pyrimidin-4-yl]-1-prop-2-enoyl-piperazin-2-yl]acetonitrile] here?
Answer: Its POC is “C (“C”>50% POC)”.

Question: And the IC50 (KRas G12C [2]; read-out: IC50)?
Answer: The IC50 was 0.1 to 1000 nM.
